Like-named read-outs stand apart in the source and are kept apart here.
Target: T1, human full-length HSP90 (Homo sapiens, UniProt P08238)
T1 construct: E. coli expressed human full-length HSP90 protein, purified >95%; made in house; host or cells: E. coli
Experiment: Fluorescence polarization assay (competitive displacement of probe RBT0045864-FAM from HSP90)
Format: binding
Description: Fluorescence polarization {also known as fluorescence anisotropy} measures the rotation of a fluorescing species in solution, where the larger molecule the more polarized the fluorescence emission. When the fluorophore is excited with polarized light, the emitted light is also polarized. The molecular size is proportional to the polarization of the fluorescence emission.
The fluoroscein-labelled probe—RBT0045864-FAM—
binds to HSP90 {full-length human, full-length yeast or N-terminal domain HSP90} and the anisotropy {rotation of the probe:protein complex} is measured.
Test compound is added to the assay plate, left to equilibrate and the anisotropy measured again. Any change in anisotropy is due to competitive binding of compound to HSP90, thereby releasing probe.
Stored at room temperature. • 3) BSA (bovine serum albumen) 10 mg/ml (New England Biolabs # B9001S) • 4) 20 mM probe in 100% DMSO stock concentration. Stored in the dark at RT. Working concentration is 200 nM diluted in AR water and stored at 4° C.
• 1) Add 100 μl 1× buffer to wells 11A and 12A (=FP BLNK) • 2) Prepare assay mix—all reagents are kept on ice with a lid on the bucket as the probe is light-sensitive.
• 3) Aliquot 100 μl assay mix to all other wells • 4) Seal plate and leave in dark at room temp for 20 minutes to equilibrate
This gives 2.5 mM {50×} stock cpd—assuming cpds 20 mM. • 4) Repeat for wells A2 to A10. Control in columns 11 and 12. • 5) Transfer 5 μl from row A to row B—not column 12. Mix well. • 6) Transfer 5 μl from row B to row C. […] Add 2 μl of 100 mM standard cpd to wells B12-H12 {is positive control} • 13) The Z′ factor is calculated from zero controls and positive wells.

[1] = fluorescence polarisation, E. coli expressed human full-length HSP90 200 nM, probe 80 nM, read-out: Hsp90 FP IC50

T1 sequence (P08238 whole entry): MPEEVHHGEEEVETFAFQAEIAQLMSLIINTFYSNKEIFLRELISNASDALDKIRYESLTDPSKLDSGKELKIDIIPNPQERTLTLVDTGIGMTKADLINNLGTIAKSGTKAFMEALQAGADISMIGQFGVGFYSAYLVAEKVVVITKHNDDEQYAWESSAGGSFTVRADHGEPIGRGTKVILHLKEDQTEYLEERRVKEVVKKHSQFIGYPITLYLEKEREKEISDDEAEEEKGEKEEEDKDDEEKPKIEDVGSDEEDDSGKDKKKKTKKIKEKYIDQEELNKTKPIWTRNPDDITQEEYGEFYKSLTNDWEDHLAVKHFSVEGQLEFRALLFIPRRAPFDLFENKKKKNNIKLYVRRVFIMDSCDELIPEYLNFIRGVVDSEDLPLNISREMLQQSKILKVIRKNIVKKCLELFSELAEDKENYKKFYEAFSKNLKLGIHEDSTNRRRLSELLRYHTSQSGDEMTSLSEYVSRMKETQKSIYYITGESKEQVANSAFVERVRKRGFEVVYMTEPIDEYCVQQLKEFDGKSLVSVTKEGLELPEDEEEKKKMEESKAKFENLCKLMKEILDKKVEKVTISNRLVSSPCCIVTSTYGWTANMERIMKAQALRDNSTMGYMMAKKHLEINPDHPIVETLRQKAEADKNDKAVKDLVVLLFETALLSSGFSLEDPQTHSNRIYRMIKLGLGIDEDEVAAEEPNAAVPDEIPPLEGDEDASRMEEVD

`CCNC(=O)c1sc2nc(N)c(C#N)c(-c3ccccc3)c2c1N` [Example 1, 3,6-Diamino-5-cyano-4-phenyl-thieno[2,3-b]pyridine-2-carboxylic acid ethylamide] showed an IC50 [1] of under 10 µM.
`Cc1ccccc1NC(=O)c1sc2nc(N)c(C#N)c(-c3ccc(C(C)C)cc3)c2c1N` [Example 2] gave an IC50 [1] of over 10 µM.
Work on `COc1cccc(NC(=O)c2sc3nc(N)c(C#N)c(-c4ccc(C(C)C)cc4)c3c2N)c1` [Example 3] yielded an IC50 [1] of over 10 µM.
Work on `N#Cc1c(N)nc2sc(C(N)=O)c(N)c2c1-c1ccc(Br)cc1` [Example 4] yielded an IC50 [1] of over 10 µM.
`CC(C)c1ccc(-c2c(C#N)c(N)nc3sc(C(=O)Nc4nccs4)c(N)c23)cc1` [Example 5] was tested, and the IC50 [1] was over 10 µM.
`CC(C)c1ccc(-c2c(C#N)c(N)nc3sc(C(N)=O)c(N)c23)cc1` [Example 6] showed an IC50 [1] of under 10 µM.
For `N#Cc1c(N)nc2sc(C(N)=O)c(N)c2c1-c1ccc(Cl)cc1` [Example 7], the IC50 [1] was under 10 µM.
Work on `CCOc1ccc(-c2c(C#N)c(N)nc3sc(C(N)=O)c(N)c23)cc1` [Example 8] yielded an IC50 of under 10 µM.
Compound `N#Cc1c(N)nc2sc(C(=O)Nc3ccccc3)c(N)c2c1-c1ccc(Br)cc1` [Example 9] has an IC50 [1] of over 10 µM.
Compound `COc1ccc(-c2c(C#N)c(N)nc3sc(C(N)=O)c(N)c23)cc1OC` [Example 10] has an IC50 [1] of over 10 µM.
In the case of `CC(C)NC(=O)c1sc2nc(N)c(C#N)c(-c3ccccc3)c2c1N` [Example 11], the IC50 [1] is reported as over 10 µM.
For `N#Cc1c(N)nc2sc(C(=O)NCc3ccccc3)c(N)c2c1-c1ccccc1` [Example 12], the IC50 [1] was over 10 µM.
With `CCN(CC)C(=O)c1sc2nc(N)c(C#N)c(-c3ccccc3)c2c1N` [Example 13] the IC50 [1] was over 10 µM.
For `CNC(=O)c1sc2nc(N)c(C#N)c(-c3ccccc3)c2c1N` [Example 14], the IC50 [1] was under 10 µM.
`COC(=O)CNC(=O)c1sc2nc(N)c(C#N)c(-c3ccccc3)c2c1N` [Example 15] was tested, and the IC50 [1] was under 10 µM.
In the case of `CN1CCN(C(=O)c2sc3nc(N)c(C#N)c(-c4ccccc4)c3c2N)CC1` [Example 16], the IC50 [1] is reported as over 10 µM.
With `CN(C)CCCNC(=O)c1sc2nc(N)c(C#N)c(-c3ccccc3)c2c1N` [Example 17] the IC50 [1] was over 10 µM.
In the case of `CN1CCN(CCCNC(=O)c2sc3nc(N)c(C#N)c(-c4ccccc4)c3c2N)CC1` [Example 18], the IC50 [1] is reported as over 10 µM.
With `N#Cc1c(N)nc2sc(C(=O)NCCCN3CCOCC3)c(N)c2c1-c1ccccc1` [Example 19] the IC50 [1] was over 10 µM.
`N#Cc1c(N)nc2sc(C(=O)N3CCOCC3)c(N)c2c1-c1ccccc1` [Example 20] showed an IC50 [1] of over 10 µM.
Compound `N#Cc1c(N)nc2sc(C(=O)NCCN3CCOCC3)c(N)c2c1-c1ccccc1` [Example 21] has an IC50 [1] of over 10 µM.
Compound `N#Cc1c(N)nc2sc(C(=O)NCC(N)=O)c(N)c2c1-c1ccccc1` [Example 22] has an IC50 [1] of under 10 µM.
Compound `CN(C)CCNC(=O)c1sc2nc(N)c(C#N)c(-c3ccccc3)c2c1N` [Example 23] has an IC50 [1] of over 10 µM.
`N#Cc1c(N)nc2sc(C(=O)NCCO)c(N)c2c1-c1ccccc1` [Example 24] was tested, and the IC50 [1] was over 10 µM.
With `N#Cc1c(N)nc2sc(C(N)=O)c(N)c2c1-c1ccccc1` [Example 25] the IC50 [1] was over 10 µM.
`N#Cc1c(N)nc2sc(C(=O)NCCN)c(N)c2c1-c1ccccc1` [Example 26] was tested, and the IC50 [1] was over 10 µM.
For `COC(=O)c1sc2nc(N)c(C#N)c(-c3ccc(OC(C)C)cc3)c2c1N` [Example 27], the IC50 [1] was over 10 µM.
